Structures are written as SMILES. Values joined by “and” are separate entries in the source; they are usually repeats but may differ in a detail not shown here. Equal values may be shown once.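 1) Cells in 96-well plates. 2) Compound, 48 h, 5 concentrations. 3) Linear interpolation between surrounding doses. 4) Unreached endpoint = highest concentration. Abbreviation: GI50, concentration required for 50% inhibition of growth. TGI: concentration producing complete growth inhibition.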

Among the test systems are CCRF-CEM leukemia; HL-60(TB) leukemia; 786-0 renal; A498 renal; A549 NSCLC; ACHN renal; COLO 205 colon; DU-145 prostate; EKVX NSCLC; HCC-2998 colon; HCT-116 colon; HCT-15 colon; HOP-92 NSCLC; HT29 colon; IGROV1 ovarian; K-562 leukemia; MALME-3M melanoma; MCF7 breast; NCI-H460 lung; NCI-H522 lung; OVCAR-4 ovarian; OVCAR-5 ovarian; PC-3 prostate; RXF 393 renal; SF-295 CNS; SF-539 CNS; SK-MEL-2 melanoma; SN12C renal; SNB-19 CNS; SNB-75 CNS; SR leukemia; SW-620 colon; T-47D breast; TK-10 renal; BT-549 breast; HOP-62 NSCLC; KM12 colon; LOX IMVI melanoma; M14 melanoma; MOLT-4 leukemia; NCI-H226 lung; OVCAR-3 ovarian; OVCAR-8 ovarian; RPMI-8226 leukemia; SF-268 CNS; SK-MEL-5 melanoma; SK-OV-3 ovarian.

Common to all, as to experiment: inhibition of tumour cell growth, NCI panel, 48 h

With `Cc1cc(S(=O)(=O)[O-])ccc1-n1nc(C)[c-](N=Nc2cc(S(=O)(=O)[O-])ccc2C(=O)[O-])c1=O.[Cr+3].[Na+].[OH-]` (configuration not stated), the GI50 was 468 nM with CCRF-CEM leukemia and 28300 nM with HL-60(TB) leukemia.

In the case of `C/C(=C\c1csc(C)n1)[C@@H]1C[C@@H]2O[C@]2(C)CCC[C@H](C)[C@H](O)[C@@H](C)C(=O)C(C)(C)[C@@H](O)CC(=O)O1`, the TGI is greater than 100000 nM in the assay on 786-0 renal; 116 nM in the assay on A498 renal; greater than 100000 nM with A549 NSCLC; greater than 100000 nM in the assay on ACHN renal; less than 0.1 nM in the assay on COLO 205 colon; 0.139 nM in the assay with DU-145 prostate. For the same compound, the TGI with EKVX NSCLC is greater than 100000 nM; in the assay on HCC-2998 colon, less than 0.1 nM; with HCT-116 colon, greater than 100000 nM; with HCT-15 colon, 4.47 nM; with HL-60(TB) leukemia, less than 0.1 nM; in the assay on HOP-92 NSCLC, 26.3 nM. Also, the TGI with HT29 colon is less than 0.1 nM; with IGROV1 ovarian, greater than 100000 nM; with K-562 leukemia, 274 nM; in the assay on MALME-3M melanoma it was greater than 100000 nM; in the assay with MCF7 breast, 11.2 nM; with NCI-H460 lung it was greater than 100000 nM. Moreover, the TGI was less than 0.1 nM in the assay with NCI-H522 lung; greater than 100000 nM in the assay on OVCAR-4 ovarian; greater than 100000 nM with OVCAR-5 ovarian; greater than 100000 nM with PC-3 prostate; 4.18 nM with RXF 393 renal; less than 0.1 nM with SF-295 CNS. Besides, the TGI with SF-539 CNS was less than 0.1 nM; with SK-MEL-2 melanoma it was 33700 nM; in the assay on SN12C renal, greater than 100000 nM; in the assay with SNB-19 CNS, greater than 100000 nM; with SNB-75 CNS, less than 0.1 nM; with SR leukemia, less than 0.1 nM. Also, the TGI is 16100 nM in the assay on SW-620 colon, greater than 100000 nM in the assay on T-47D breast and 44800 nM in the assay on TK-10 renal. Moreover, the GI50 in the assay with OVCAR-4 ovarian was 60100 nM.

Take `CC(=O)Nc1ccc(/C=C/C(=O)N2CC(CCl)c3c2cc(N)c2ccccc32)cc1` (configuration not stated): the TGI was 12.4 nM in the assay on 786-0 renal; 6.09 nM with A498 renal; 32.6 nM and 21.8 nM with BT-549 breast; 50000 nM with CCRF-CEM leukemia; 36.2 nM in the assay with COLO 205 colon; 135 nM in the assay on DU-145 prostate. Moreover, the TGI was 57.6 nM in the assay on EKVX NSCLC; 42.7 nM and 129 nM with HCC-2998 colon; 140 nM in the assay with HCT-116 colon; 50000 nM with HCT-15 colon; 14.5 nM in the assay with HOP-62 NSCLC; 9.89 nM with HOP-92 NSCLC. Besides, the TGI with HT29 colon was 38.4 nM; with IGROV1 ovarian it was 614 nM; in the assay on K-562 leukemia it was 50000 nM; with KM12 colon, 50000 nM and > 100000 nM; in the assay on LOX IMVI melanoma, 97 nM; with M14 melanoma it was 7.95 nM. Moreover, the TGI in the assay with MALME-3M melanoma was 7.56 nM; in the assay with MCF7 breast it was 50000 nM and > 100000 nM; in the assay on MOLT-4 leukemia, 50000 nM; with NCI-H226 lung it was 29.2 nM; in the assay with NCI-H522 lung it was 6.71 nM; with OVCAR-3 ovarian it was 5560 nM. Further, the TGI with OVCAR-4 ovarian is 9180 nM; in the assay on OVCAR-8 ovarian it was 74.1 nM; with RPMI-8226 leukemia it was 50000 nM; with SF-268 CNS, 20.8 nM; in the assay on SF-295 CNS it was 38500 nM; with SK-MEL-5 melanoma, 5.89 nM. Besides, the TGI in the assay with SK-OV-3 ovarian was 573 nM and 300 nM; with SN12C renal it was 7.2 nM; in the assay on SNB-19 CNS, 26.9 nM and 111 nM; in the assay on SR leukemia it was 50000 nM; in the assay on SW-620 colon, 509 nM; in the assay with TK-10 renal, 18700 nM.

The values are drawn from PubChem BioAssay (NCI).
